“Also recorded” adds a separate entry of the source. Counter-ions that a name gives are not always drawn.
How the values were obtained:
HBV [1] = assay: Clinical response / resistance of HBV patients to nucleoside or nucleotide analog treatment; assay type: in vivo, human
From the text: The present invention is predicated in part on the identification and isolation of nucleoside or nucleotide analog-resistant variants of HBV following treatment of patients with either ADV or LMV or ETV or more particularly ADV and LMV or TFV and LMV, or ETV and optionally one or more other nucleoside analogs or nucleotide analogs or other anti-HBV agents such as TFV, LdT, or FTC. […] Reference herein to “decreased” or “reduced” in relation to sensitivity to ADV and/or LMV and/or FTC and/or TFV and/or ETV includes and encompasses a complete or substantial resistance to the nucleoside or nucleotide analog or other anti-HBV agents as well as partial resistance and includes a replication rate or replication efficiency which is more than a wild-type in the presence of a nucleoside or nucleotide analog or other anti-HBV agents. In one aspect, this is conveniently measured by an increase in viral load during treatment, or alternatively, there is no substantial decrease in HBV DNA viral load from pre-treatment HBV DNA levels during treatment (i.e., non-response to treatment).
Hepatitis B surface antigen (HBsAg), hepatitis B e antigen (HBeAg), anti-HBe and hepatitis B core antigen (HBcAg) specific IgG and IgM were measured using commercially available immunoassays (Abbott Laboratories, North Chicago, Ill., USA). Hepatitis B viral DNA levels were measured using a capture hybridization assay according to the manufacturer's directions (Digene Hybrid Capture II, Digene Diagnostics Inc., Beltsville, Md.). The manufacturers stated cut-off for detecting HBV viremia in clinical specimens was 0.7×10^6 copies/ml or 2.5 pg/ml, [Hendricks et al, Am J Clin Pathol 104:537-46, 1995]. HBV DNA levels can also be quantitated using other commercial kits such as Cobas amplification HBV monitor kit (Roche). […]
The specific amplified products were purified using PCR purification columns from MO BIO Laboratories Inc (La Jolla, Calif.) and directly sequenced using Big Dye terminator Cycle sequencing Ready Reaction Kit (Perkin Elmer, Cetus Norwalk, Conn.). […]

HBV [2] = conditions: cited from earlier work
HBV [3] = conditions: cited from earlier work; remark: listed apart in the source
[4] = ALT in patients during antiviral therapy; assay type: in vivo, human; conditions: Patient G, ADV therapy
HIV = conditions: cited from earlier work

Structure (SMILES): CC(C)(C)C(=O)OCOP(=O)(COCCn1cnc2c(N)ncnc21)OCOC(=O)C(C)(C)C [ADV, adefovir dipivoxil]
- response to treatment (HBV [1]; human, in vivo): resistant; also recorded: did not respond
- clinical activity against both wild-type and lamivudine-resistant strains of HBV (HBV [2]; in vivo): demonstrated clinical activity
- mean decrease in viremia (HBV [2]; phase II studies, 30 mg daily dose, over 12 weeks): 4 log10
- inhibition of HBV replication (HBV [3]): potent inhibitor
- ALT [4]: 467 IU/ml

Structure (SMILES): C=C1[C@H](CO)[C@@H](O)C[C@@H]1n1cnc2c(=O)[nH]c(N)nc21 [ETV, entecavir]
- response to treatment (HBV [1]; Patient H, sequential then combination treatment): resistant
- response to treatment (HBV [1]; Patient J, previously treated with LMV, then ADV, then ETV): did not respond

Structure (SMILES): Nc1nc(=O)n([C@@H]2CS[C@H](CO)O2)cc1F [FTC, (−)-β-L-2′-3′-dideoxy-5-fluoro-3′-thiacydidine]
- activity against HIV (HIV): activity
- activity against HBV (HBV [3]): activity

Structure (SMILES): Nc1ncnc2c1ncn2C1CC(O)C(CO)O1 [LdA, beta-L-2′-deoxyadenosine]
- activity against HBV (HBV [3]): activity

Structure (SMILES): Nc1ccn([C@@H]2C[C@@H](O)[C@H](CO)O2)c(=O)n1 [LdC, beta-L-2′-deoxycytidine]
- activity against HBV (HBV [3]): activity

Structure (SMILES): Cc1cn([C@@H]2C[C@@H](O)[C@H](CO)O2)c(=O)[nH]c1=O [LdT, beta-Lthymidine]
- activity against HBV (HBV [3]): activity

Structure (SMILES): CC(C)OC(=O)OCOP(=O)(CO[C@H](C)Cn1cnc2c(N)ncnc21)OCOC(=O)OC(C)C [TFV, tenofovir disoproxil fumarate]
- activity against HIV (HIV): antiviral activity
- activity against HBV (HBV [3]): antiviral activity
- inhibition of HBV replication (HBV [3]): potent inhibitor
